Experiments:
corneocytes = details: C. Huber et al, Arch. Derm. Res. 257, 293-297, 1977; cited from earlier work
[1] = in vitro human skin
From the text: Excised human skin samples are obtained at autopsy and maintained under sterile conditions until used. […] The diffusion cell is composed of two compartments: the lower chamber is made of Plexiglass and the top is made of Teflon. The skin sample is mounted with the stratum corneum side exposed to the air and held on to the Teflon top with a rubber 0-ring; a tight seal between the two compartments is achieved by tightening the set screws. The cell has an effective diffusional area of 5.08 cm^2 and the dermis side of the skin is constantly bathed by filling the receptor compartment with 40 ml of isotonic saline. Adequate mixing of the receptor phase is accomplished with a magnet driven Teflon-coated stir bar moved by appropriate motor means located below the cell bath. The whole diffusion cell assembly is immersed in a water bath maintained at 30° C. using a circulating water bath. […] At hourly intervals over a period of seven hours, a one milliliter sample of the receptor fluid is withdrawn and analyzed for radioactive content by liquid scintillation counting means (Packard Tri-Carb model No. 460). […]
At the end of the seven hour period the skin sample is removed from the diffusion cell, trimmed of excess skin and glued with cyanoacrylate glue to a glass plate. […] Ten successive adhesive tape strippings are then taken and the salicylic acid content per strip determined. […]

Row | SMILES | reduction in intercellular cohesion of the corneocytes (in words) (corneocytes) | deposition of salicylic acid in the stratum corneum (in words) [1] | rate of penetration of salicylic acid (in words) [1]
1 | O=C(O)c1ccccc1O [Salicylic acid] | causes a reduction in intercellular cohesion of the corneocytes | – | –
2 | CCCCCCCCCCCCOS(=O)(=O)[O-].[Na+] [surfactant D, sodium lauryl sulfate] | – | marked decrease in deposition of salicylic acid in the stratum corneum | marked increase in the penetration rate through the skin

Reference: patent publication US4800197A, “Anti-acne composition” (Richardson-Vicks Inc., priority 1987, dated 1989)
